Measurements as given in patent US12312328B2, “Pyrazoline dihydroquinolones, pharmaceutical compositions, and uses” (Emory University, priority 2013, dated 2025).

Experiments:
[1] = Plasma stability, human; format: in vitro ADME; details: two-hour time-course
Procedure: (§1) Three analogs, (58) 997-33, (26)997-23 and (64) 997-57 were evaluated for plasma stability as well as aqueous solubility. […] The aqueous solubility of compounds (26)997-23 and (58) 997-33 was evaluated in oocyte recording buffer using nephelometry. […] In order to assess the potential BBB penetration, compounds (26)997-23 and (64)997-57 were selected for evaluation in the MDR1-MDCK permeability assay (FIG. 19). […] The same compounds were also evaluated for metabolic stability using human liver microsomes.

[2] = molecular target: T1, H2 (Homo sapiens, UniProt P25021); test: NIMH PDSP Ki determination, H2; format: binding
T1 construct: NIMH PDSP (screening programme)
Procedure: (§2) The actions of these two compounds at 5 μM on were tested 42 different ion channels, G-protein coupled receptors, and transporters via the National Institutes of Mental Health (NIMH) psychoactive drug screening program (PDSP).

[3] = Human liver microsomal stability; format: in vitro ADME; details: 60 minute assay
Procedure: Human liver microsomes were obtained from XenoTech. The reaction mixture was prepared with 0.5 mg/mL human liver microsomes, 100 mM potassium phosphate (pH 7.4), 5 mM magnesium chloride, 1 μM test compound. The reaction mixture was incubated in a shaking water bath at 37° C. for 3 minutes prior to the addition of NADPH (1 mM). Testosterone was run simultaneously in a separate vessel as a control. 100 μl aliquots were taken at 0, 10, 20, 30 and 60 minutes for both test compound and testosterone. The aliquots were combined immediately with 400 μl of ice cold 50/50 ACN/dH2O containing 0.1% formic acid and internal standard to terminate the reaction. The samples were then mixed and centrifuged to precipitate microsomal proteins. All samples were assayed by LC-MS/MS using electrospray ionization and multiple reaction monitoring and the peak area responses to internal standard of the compounds at each time point was compared to the peak area response at time 0 to determine the percent compound remaining. The human liver microsomal stability assays were performed by Absorption Systems.

[4] = molecular target: T2, 5-HT6 (Homo sapiens, UniProt P50406); test: NIMH PDSP Ki determination, 5-HT6; format: binding
T2 construct: NIMH PDSP (screening programme)
Procedure: as §2

[5] = Plasma stability, rat; format: in vitro ADME; details: two-hour time-course
Procedure: as §1

[6] = tested on: 42 different ion channels, G-protein coupled receptors, and transporters; test: NIMH PDSP primary binding assay; details: 5 μM compound
Procedure: as §2

[7] = tested on: GluN2D receptor mutants Q801Y, L705F and A752V; test: Inhibition of mutant GluN2D receptors (Q801Y, L705F and A752V); format: cell-based; details: racemic mixture, A752V versus wild type
Procedure: Mutations to the wild type GluN2D receptor (Q801Y, L705F and A752V) were described to decrease sensitivity of the GluN2D receptor to blockade by either DQP-1105 and/or QNZ-46 in the membrane proximal region of the bilobed ligand binding domain encoded by the S2 region of the polypeptide chain were evaluated. See Acker et al. and Hansen & Traynelis, J Neurosci, 2011, 31, 3650-3661.

[8] = Aqueous solubility in oocyte recording buffer by nephelometry; format: physicochemical
Procedure: as §1

[9] = tested on: MDR1-MDCK cell monolayers; test: MDR1-MDCK permeability assay; format: in vitro ADME; details: MDR1-MDCK, 5 μM, 120 minutes
Procedure: The Papp and efflux ratio were calculated as described in the Methods. […] See Wang et al., International Journal of Pharmaceutics, 2005, 288, 349-359.
Cell monolayers were grown to confluence on collagen-coated, microporous, polycarbonate membranes in 12-well Costar Transwell® plates. The permeability assay buffer was Hanks Balanced Salt Solution containing 10 mM HEPES and 15 mM glucose at pH 7.4. The buffer in the receiver chamber also contained 1% bovine serum albumin. The dosing solution concentration in the assay buffer was 5 μM for each compound tested. The cell monolayers were dosed on the apical side (A-to-B) or basolateral side (B-to-A) and incubated at 37° C. with 5% CO2 in a humidified incubator. Samples were taken from the donor and receiver chambers at 120 minutes. Each determination was performed in duplicate. The co-dosed lucifer yellow flux was also measured for each monolayer to ensure no damage was inflicted to the cell monolayers during the flux period. All samples were assayed by LC-MS/MS using electrospray ionization. The apparent permeability (Papp) and percent recovery were calculated as follows. […] Human Liver Microsomal Stability

[10] = Plasma stability, mouse; format: in vitro ADME; details: two-hour time-course
Procedure: as §1

[11] = molecular target: T3, kappa-opioid (Homo sapiens, UniProt P41145); test: NIMH PDSP Ki determination, kappa-opioid; format: binding
T3 construct: NIMH PDSP (screening programme)
Procedure: as §2

[12] = molecular target: T4, 5-HT1E (Homo sapiens, UniProt P28566); test: NIMH PDSP Ki determination, 5-HT1E; format: binding
T4 construct: NIMH PDSP (screening programme)
Procedure: as §2

[13] = molecular target: GluN1/GluN2D (Rattus norvegicus, UniProt Q62645); test: Inhibition of GluN1/GluN2D responses: dependence on agonist concentration and on voltage; format: cell-based; details: 1 μM compound
Description: Although it is not intended that embodiments of this disclosure be limited by any mechanism, Acker et al. report a mechanism for noncompetitive inhibition by GluN2C/D N-methyl-d-aspartate receptor subunit-selective modulators. Molecular Pharmacology 2011, 80, 782-795.

[14] = molecular target: GluN1/GluN2D receptors (Rattus norvegicus, UniProt P35439+Q62645); test: Whole-cell patch clamp recordings of GluN1/GluN2D receptors expressed in HEK293 cells; format: cell-based
Procedure: The time course of recovery from inhibition could also be well described by a single exponential function, and the kOFF was determined by the y-intercept in the linear regression relationship between the reciprocal of the tau describing the onset of inhibition and the drug concentration.

[15] = molecular target: T5, mu-opioid (Homo sapiens, UniProt P35372); test: NIMH PDSP Ki determination, mu-opioid; format: binding
T5 construct: NIMH PDSP (screening programme)
Procedure: as §2

Sequence of GluN1/GluN2D (Q62645 28-1323, other chains not shown): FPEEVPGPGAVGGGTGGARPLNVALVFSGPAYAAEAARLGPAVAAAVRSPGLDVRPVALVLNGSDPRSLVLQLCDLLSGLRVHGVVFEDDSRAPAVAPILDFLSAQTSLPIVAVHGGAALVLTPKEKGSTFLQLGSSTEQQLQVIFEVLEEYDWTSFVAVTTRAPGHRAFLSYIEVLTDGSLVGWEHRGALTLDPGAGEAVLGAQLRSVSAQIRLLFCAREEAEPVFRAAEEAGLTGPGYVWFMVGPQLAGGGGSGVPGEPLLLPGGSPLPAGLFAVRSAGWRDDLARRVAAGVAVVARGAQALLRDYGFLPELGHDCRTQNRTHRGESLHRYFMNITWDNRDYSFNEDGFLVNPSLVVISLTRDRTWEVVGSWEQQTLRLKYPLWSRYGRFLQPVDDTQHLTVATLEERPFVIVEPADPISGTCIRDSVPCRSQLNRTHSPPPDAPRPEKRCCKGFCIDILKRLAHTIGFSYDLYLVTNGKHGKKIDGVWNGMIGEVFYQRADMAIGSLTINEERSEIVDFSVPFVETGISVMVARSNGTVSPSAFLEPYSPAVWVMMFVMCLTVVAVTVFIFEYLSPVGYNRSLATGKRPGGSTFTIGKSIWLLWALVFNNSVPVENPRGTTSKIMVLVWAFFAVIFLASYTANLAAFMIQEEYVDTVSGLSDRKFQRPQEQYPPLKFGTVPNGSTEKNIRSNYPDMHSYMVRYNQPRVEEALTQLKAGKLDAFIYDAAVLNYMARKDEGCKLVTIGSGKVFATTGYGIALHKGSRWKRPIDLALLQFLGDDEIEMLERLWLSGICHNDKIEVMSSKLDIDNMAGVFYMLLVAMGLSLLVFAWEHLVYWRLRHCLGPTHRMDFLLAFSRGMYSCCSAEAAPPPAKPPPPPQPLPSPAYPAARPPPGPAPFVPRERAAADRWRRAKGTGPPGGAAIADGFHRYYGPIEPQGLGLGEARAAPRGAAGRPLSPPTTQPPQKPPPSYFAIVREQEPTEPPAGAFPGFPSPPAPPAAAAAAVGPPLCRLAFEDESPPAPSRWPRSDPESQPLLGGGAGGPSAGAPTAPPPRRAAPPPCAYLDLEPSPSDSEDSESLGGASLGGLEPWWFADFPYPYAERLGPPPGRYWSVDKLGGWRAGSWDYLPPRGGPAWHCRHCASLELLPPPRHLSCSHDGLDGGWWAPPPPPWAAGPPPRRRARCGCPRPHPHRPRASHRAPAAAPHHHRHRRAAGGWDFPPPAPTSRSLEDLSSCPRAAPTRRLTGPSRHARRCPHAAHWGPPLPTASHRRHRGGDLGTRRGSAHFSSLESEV
Sequence of GluN1/GluN2D receptors (Q62645 28-1323, other chains not shown): as above
T2 sequence (P50406 whole entry, species assumed): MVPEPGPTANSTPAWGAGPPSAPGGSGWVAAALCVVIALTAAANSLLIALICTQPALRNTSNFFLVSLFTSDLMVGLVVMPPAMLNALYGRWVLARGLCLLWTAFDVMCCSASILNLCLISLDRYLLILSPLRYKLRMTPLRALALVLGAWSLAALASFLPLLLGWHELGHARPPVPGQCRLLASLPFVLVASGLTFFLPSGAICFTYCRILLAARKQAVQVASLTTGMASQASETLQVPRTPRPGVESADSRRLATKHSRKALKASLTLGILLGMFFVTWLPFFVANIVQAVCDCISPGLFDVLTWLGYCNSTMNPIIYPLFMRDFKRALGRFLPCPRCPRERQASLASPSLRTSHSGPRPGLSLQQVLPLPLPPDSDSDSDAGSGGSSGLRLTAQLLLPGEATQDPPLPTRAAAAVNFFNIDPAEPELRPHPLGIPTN
T3 sequence (P41145 whole entry): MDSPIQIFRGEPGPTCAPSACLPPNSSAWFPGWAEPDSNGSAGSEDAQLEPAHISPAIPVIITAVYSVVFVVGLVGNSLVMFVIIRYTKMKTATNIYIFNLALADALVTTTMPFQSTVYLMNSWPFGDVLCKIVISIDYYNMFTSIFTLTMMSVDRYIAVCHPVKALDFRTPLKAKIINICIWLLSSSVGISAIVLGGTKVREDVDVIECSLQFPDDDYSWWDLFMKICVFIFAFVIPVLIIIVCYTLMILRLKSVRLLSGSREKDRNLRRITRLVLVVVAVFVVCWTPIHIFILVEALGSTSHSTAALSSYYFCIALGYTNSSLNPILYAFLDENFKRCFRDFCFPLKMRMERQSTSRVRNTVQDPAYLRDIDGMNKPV
T4 sequence (P28566 whole entry, species assumed): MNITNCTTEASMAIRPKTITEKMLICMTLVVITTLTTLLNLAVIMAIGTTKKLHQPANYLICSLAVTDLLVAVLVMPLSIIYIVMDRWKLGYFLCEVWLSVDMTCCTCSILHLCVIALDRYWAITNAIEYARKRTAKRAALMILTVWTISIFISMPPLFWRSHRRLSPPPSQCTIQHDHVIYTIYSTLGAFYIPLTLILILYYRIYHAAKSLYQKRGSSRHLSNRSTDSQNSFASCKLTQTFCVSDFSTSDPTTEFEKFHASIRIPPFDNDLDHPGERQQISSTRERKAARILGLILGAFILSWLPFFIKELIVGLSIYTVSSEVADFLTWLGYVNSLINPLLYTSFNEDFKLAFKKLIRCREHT
T1 sequence (P25021 whole entry): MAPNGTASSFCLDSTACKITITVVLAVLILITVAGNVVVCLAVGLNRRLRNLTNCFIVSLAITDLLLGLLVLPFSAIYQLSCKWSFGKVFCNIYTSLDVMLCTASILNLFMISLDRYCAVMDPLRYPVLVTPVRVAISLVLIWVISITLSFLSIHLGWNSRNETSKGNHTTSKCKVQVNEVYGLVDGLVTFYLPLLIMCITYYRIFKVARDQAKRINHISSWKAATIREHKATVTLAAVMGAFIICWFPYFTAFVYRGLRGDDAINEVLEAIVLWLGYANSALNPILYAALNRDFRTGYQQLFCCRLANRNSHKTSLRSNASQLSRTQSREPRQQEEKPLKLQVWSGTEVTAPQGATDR
T5 sequence (P35372 whole entry): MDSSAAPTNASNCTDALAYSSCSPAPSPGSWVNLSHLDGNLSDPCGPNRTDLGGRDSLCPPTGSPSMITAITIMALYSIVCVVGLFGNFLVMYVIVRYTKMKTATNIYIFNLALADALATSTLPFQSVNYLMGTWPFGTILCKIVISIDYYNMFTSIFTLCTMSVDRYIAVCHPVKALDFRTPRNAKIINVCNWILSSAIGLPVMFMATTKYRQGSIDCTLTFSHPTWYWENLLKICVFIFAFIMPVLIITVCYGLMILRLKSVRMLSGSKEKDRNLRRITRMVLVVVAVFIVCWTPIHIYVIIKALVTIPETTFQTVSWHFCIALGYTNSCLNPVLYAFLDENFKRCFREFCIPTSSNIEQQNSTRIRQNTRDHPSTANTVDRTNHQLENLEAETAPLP

| SMILES | plasma stability [1] | Ki [2] | degradation in human liver microsomes, in words [3] | Ki [4] | plasma stability [5] | effect on receptors and transporters in primary binding assay [6] | effect of GluN2D mutations on degree of inhibition [7] | solubility [8] | Papp A-B [9] | plasma stability [10] | Ki [11] | Ki [12] | GluN1/GluN2D response remaining ([13]; 30 μM glutamate and glycine, n=6) | GluN1/GluN2D response remaining ([13]; 3 mM glutamate and glycine, n=6) | GluN1/GluN2D response remaining ([13]; +30 mV, n=8) | GluN1/GluN2D response remaining ([13]; −40 mV, n=8) | IC50 ([14]; HEK293 cells, n=4, read-out: IC50 for inhibition of the response under whole-cell voltage clamp) | Kd ([14]; calculated from kOFF and kON, read-out: dissociation constant KD) | Ki [15] |
| --- | --- | --- | --- | --- | --- | --- | --- | --- | --- | --- | --- | --- | --- | --- | --- | --- | --- | --- | --- |
| O=C(O)CCC(=O)N1N=C(c2c(-c3ccc(Cl)cc3)c3ccccc3[nH]c2=O)CC1c1ccc(Cl)cc1 (racemic) [Compound 997-23, 4-(5-(4-Chlorophenyl)-3-(4-(4-chlorophenyl)-2-oxo-1,2-dihydroquinolin-3-yl)-4,5-dihydro-1H-pyrazol-1-yl)-4-oxobutanoic acid] | minimal degradation | > 10 µM | minimal degradation | > 10 µM | minimal degradation | minimal effect | significantly reduced the degree of inhibition | > 80 µM | 0.47 ×10⁻⁶ cm/s | minimal degradation | > 10 µM |  |  |  |  |  |  |  |  |
| O=C(O)/C=C/C(=O)N1N=C(c2c(-c3ccc(Br)cc3)c3ccccc3[nH]c2=O)CC1c1ccc(Cl)cc1 (racemic) [Compound 997-33, (E)-4-(3-(4-(4-Bromophenyl)-2-oxo-1,2-dihydroquinolin-3-yl)-5-(4-chlorophenyl)-4,5-dihydro-1H-pyrazol-1-yl)-4-oxobut-2-enoic acid] | minimal degradation |  |  | > 10 µM | minimal degradation | minimal effect |  | > 80 µM |  | minimal degradation | > 10 µM | > 10 µM | 4.1 ± 0.58 % of control | 3.1 ± 0.50 % of control | 4.8+1.2 % of control | 4.9 ± 1.3 % of control | 0.99 µM | 0.99 µM | > 10 µM |
